From US7932394B2, “Aryloxy-substituted benzimidazole derivatives” (MSD K.K., priority 2004, dated 2011)

Target: T1, recombinant human liver GK (Homo sapiens, UniProt P35557)
T1 construct: made in house; host or cells: E. coli
T1 sequence (P35557 1-466 isoform P35557-2): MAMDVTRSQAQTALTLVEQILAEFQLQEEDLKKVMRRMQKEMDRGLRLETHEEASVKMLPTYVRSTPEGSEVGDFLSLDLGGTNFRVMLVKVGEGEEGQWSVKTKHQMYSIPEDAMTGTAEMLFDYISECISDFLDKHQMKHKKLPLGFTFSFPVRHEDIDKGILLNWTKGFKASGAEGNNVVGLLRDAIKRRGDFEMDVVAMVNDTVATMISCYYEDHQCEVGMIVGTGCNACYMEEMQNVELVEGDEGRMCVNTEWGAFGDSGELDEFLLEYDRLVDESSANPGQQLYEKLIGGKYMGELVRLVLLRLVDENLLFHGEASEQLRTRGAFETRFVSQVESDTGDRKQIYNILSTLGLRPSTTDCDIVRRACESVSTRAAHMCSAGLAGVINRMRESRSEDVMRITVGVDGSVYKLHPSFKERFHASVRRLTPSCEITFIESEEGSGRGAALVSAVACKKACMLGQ
Experiment: GK-activating potency: glucokinase activity via Thio-NADH level (G6PDH reporter enzyme)
Type: biochemical
Details: FLAG-GK, 30° C., final glucose concentration 2.5 mM; for Emax: OD level of DMSO control set as 100%
Text: The excellent glucokinase-activating effect of the compounds of formula (I) may be determined by a method described in references (for example, Diabetes, Vol. 45, pp. 1671-1677, 1996), or in accordance with it.
The glucokinase activity may be determined not by directly measuring glucose-6-phosphate but by measuring the level of Thio-NADH, which is produced when a reporter enzyme, glucose-6-phosphate dehydrogenase produces phosphogluconolactone from glucose-6-phosphate, and based on the level, the degree of glucokinase activity of the compound tested may be determined.
In this assay, used was a recombinant human liver GK, which was expressed by E. coli as a FLAG fusion protein therein and was purified by ANTIFLAG M2 AFFINITY GEL (Sigma).
Using a flat-bottomed 96-well plate, the assay was carried out at 30° C. 69 μl of an assay buffer (25 mM Hepes Buffer/pH=7.2, 2 mM MgCl2, 1 mM ATP, 0.5 mM TNAD, 1 mM dithiothreitol) was put into the plate, and 1 μl of a DMSO solution of the compound or DMSO alone as a control was added thereto. Next, 20 μl of an enzyme mixture (FLAG-GK, 20 U/ml G6PDH) cooled in ice was added to it, and 10 μl of a substrate, 25 mM glucose was added to it, and the reaction was initiated (final glucose concentration=2.5 mM).
After the start of the reaction, the increase in the absorbance at 405 nm was measured for 12 minutes at intervals of 30 seconds, and the increase for the first 5 minutes was used for evaluating the compound tested. FLAG-GK was added so that the absorbance increase after 5 minutes in the presence of 1% DMSO could be from 0.04 to 0.06.
The OD level of the DMSO control was set as 100%; and the OD level of the test compound at different concentrations was determined. From the OD level at each concentration, Emax (%) and EC50 (μM) were computed and used as the index of the GK-activating potency of the compound.

Row | EC50 | Emax | Compound
1 | 490 nM | 982% | CCS(=O)(=O)c1ccc(Oc2cc3nc(-c4ccccn4)[nH]c3cc2CNS(C)(=O)=O)cc1 [Example 31, N-{[5-[4-(ethylsulfonyl)phenoxy]-2-(2-pyridinyl)-1H-benzimidazol-6-yl]methyl}methanesulfonamide]
2 | 360 nM | 805% | CCS(=O)(=O)c1ccc(Oc2cc3nc(-c4ccccn4)[nH]c3cc2Cc2ccc(F)cc2)cc1 [Example 65, 5-[4-(Ethylsulfonyl)phenoxy]-6-(4-fluorobenzyl)-2-(2-pyridinyl)-1H-benzimidazole]
3 | 120 nM | – | CS(=O)(=O)c1ccc(Oc2cc3nc(-c4ccccn4)[nH]c3cc2CN2C(=O)CCC2=O)cc1 [Example 1, 1-{[5-[4-(Methylsulfonyl)phenoxy]-2-(2-pyridinyl)-1H-benzimidazol-6-yl]methyl}pyrrolidine-2,5-dione]
